Test results reported in patent US20080096967A1, “Formulations for Injection of Catecholic Butanes, Including Ndga Compounds, Into Animals” (priority 2005, published 2008).
Where two headings read alike, the source gives them in different places. Marks after values point to notes of the source that are not given here.

How the values were obtained:
[1] = Solubility of M4N in water-insoluble lipids (visual inspection); assay type: physicochemical
Description: A 10 mL solution of M4N at a concentration of about 50 mg/mL in sesame oil was made as follows. About 10 mL of sesame oil were added to a glass beaker containing a stir bar. The beaker was placed on a magnetic plate and the stir bar was set to stir at medium speed. About 500 mg of M4N were slowly added to the sesame oil in the center of the beaker with the aid of a spatula to prevent M4N from sticking to the beaker wall. The M4N/sesame oil mixture was stirred for about 2 hr or until all M4N had dissolved or was uniformly suspended without any clump being present. The M4N/sesame oil mixture was heated at about 60° C. for about 30 min. (or longer if a larger volume of solution was desired, for example, 1 hr at 60° C. for 500 mL of the M4N/sesame oil mixture), or longer as need to ensure complete dissolution of M4N. […] If crystals formed, the M4N/sesame oil solution could be heated again at 60° C. for about 1 hr, with stirring, on a hot magnetic plate until all M4N was dissolved back in solution. The final M4N/sesame oil solution was stored at room temperature and was kept protected from light.
A 10 mL solution of M4N at a concentration of about 60 mg/mL in 85% sesame oil and 15% Tween® 20 was made as follows. About 8.5 mL of sesame oil were added to a glass beaker containing a stir bar. The beaker was placed on a magnetic plate and the stir bar was set to stir at medium speed. About 1.5 mL of Tween® 20 was slowly added to the center of the beaker. About 600 mg of M4N were slowly added to the sesame oil/Tween® 20 mixture in the center of the beaker with the aid of a spatula to prevent M4N from sticking to the beaker wall. The M4N/sesame oil/Tween® 20 mixture was stirred for about 2 hr or until all M4N had dissolved or was uniformly suspended without any clumps being present. The M4N/sesame oil/Tween® 20 mixture was heated at about 60° C. for about 30 min. (or longer if a larger volume of solution was desired, for example, 1 hr at 60° C. for 500 mL of the M4N/sesame oil/Tween® 20 mixture), or longer as need to ensure complete dissolution of M4N. […]

[2] = 40 mg/mL M4N/PEG 300 stability: visual appearance; assay type: physicochemical
Description: The stability of 40 mg/mL M4N dissolved in 100% PEG 300 was evaluated up to 24 hours incubation at 30° C., 45° C. and 60° C. A stock 40 mg/mL M4N in PEG 300 was prepared at 60° C., following the procedure set forth in Example 17. Subsequently, aliquots were removed and incubated at the appropriate temperature. Samples were rotated at 450 rpm during the entire course of incubation. Visual observations and RP-HPLC data were collected throughout. […] The formation of crystals coincided with a loss of soluble M4N (Table 30). The 40 mg/mL M4N/PEG 300 samples incubated at 45° C. and 60° C. were stable after 24 hours incubation as assessed by visual observations and RP-HPLC analysis (Tables 29 and 30).

[3] = system: Beagle dogs; settings: dog, in vivo
Description: A single male dog was administered M4N (12.5 mg/mL) in 20% HP-β-CD/50% PEG 300 via IV infusion (10 mL/kg/hour). Increased pressure in the infusion line and test formulation leakage from the syringe occurred. […] Because the observations were considered severe, the animal was considered moribund and scheduled for euthanization.
The dog recovered within 1 hour and 15 minutes of dosing and presented no continued or additional adverse clinical signs.
An additional male and female were dosed at 150 mg/kg and then at 125 mg/kg. […] Both animals recovered within 1 hour of dosing and no additional important clinical signs were subsequently noted.
Two extra (naïve) dogs were added to the study design and dosed at 75 mg/kg/day at an infusion rate of 5 mL/kg/hour, for a total of 12 doses in a 13-day interval. […] Clinical observations included soft feces in the male and frothy white emesis in the female; these findings were infrequent or isolated incidences and are considered unrelated to treatment. […] Both dogs recovered from any noted clinical signs within 1 hour of dosing. […] No other treatment-related observations were noted.

[4] = Human Phase 0 three-way crossover microdose pharmacokinetic study of 14C-labelled M4N (AMS); assay type: in vivo
Excerpt: This study was designed to assess the absorption of […] when administered to humans as a sub-therapeutic dose either as a single oral dose under fed and fasted conditions or a single intravenous dose (Regimens A-C, respectively, in Table 24). […] During the course of each study period, pharmacokinetic blood samples were taken at specified time points after dosing and urine was collected over pre-defined time intervals. The subjects were able to leave the clinical unit after the completion of study specific procedures at 24 hours post-dose. In this study, […] was administered to humans in a 100 μg quantity. […] Each oral administration of […] consisted of 0.1 mg of ^14C labeled […] and 376.8 mg of glycerol monooleate in a size 0 gelatin capsule. […] The baseline levels of […] were corrected for any residual […] remaining in the subjects following the periods between dosing so as not to inflate the levels of […] for any subsequent dosing.

COc1ccc(C[C@@H](C)[C@@H](C)Cc2ccc(OC)c(OC)c2)cc1OC [Formulation M4N, meso-1,4-bis(3,4-dimethoxyphenyl)-2,3-dimethylbutane]
stable at room temperature ([1]; 89% sesame oil and 11% Tween® 20, M4N 29 mg/mL, dissolved at 60° C.): more than 7 days
Stability Time at Room Temperature ([1]; Sesame Oil and Tween ® 20: 10% Oil emulsion in 90% saline, M4N 2.9 mg/mL): <3 days
stable at room temperature ([1]; sesame oil, M4N 50 mg/mL): less than 1 day
visual observation ([2]; 40 mg/mL M4N/PEG 300, 6 hours at 30° C.): tiny crystals were observed
stability by visual observations and RP-HPLC ([2]; 40 mg/mL M4N/PEG 300, 24 hours at 45° C. and 60° C.): stable
clinical signs following dosing [3]: uncoordinated/unbalanced movements and frequent urination
notable post dose observation [3]: single observation of red-brown urine in the female on SD 7
time to recovery after dosing [3]: 1 h and 0.25 h
T½ ([4]; Regimen A (oral, fed): 100 μg single oral dose following a high fat breakfast, 14C, baseline corrected, mean ± SD): 96.5 ± 20.7 h
Cmax ([4]; Regimen A (oral, fed): 100 μg single oral dose following a high fat breakfast, 14C, baseline corrected, mean ± SD, read-out: Cmax): 5.94 ± 1.33 pM
Tmax ([4]; Regimen A (oral, fed): 100 μg single oral dose following a high fat breakfast, 14C, baseline corrected, median): 2.50^a hours
T½ ([4]; Regimen B (oral, fasted): 100 μg single oral dose following an overnight fast, 14C, baseline corrected, mean ± SD): 50.9 ± 22.4 h
Cmax ([4]; Regimen B (oral, fasted): 100 μg single oral dose following an overnight fast, 14C, baseline corrected, mean ± SD, read-out: Cmax): 9.29 ± 1.4 pM
Tmax ([4]; Regimen B (oral, fasted): 100 μg single oral dose following an overnight fast, 14C, baseline corrected, median): 1.00^a hours
T½ ([4]; Regimen C (Intravenous): 100 μg as 1 mL bolus intravenous solution following an overnight fast, 14C, baseline corrected, mean ± SD): 116.2 ± 64.0 h
Cmax ([4]; Regimen C (Intravenous): 100 μg as 1 mL bolus intravenous solution following an overnight fast, 14C, baseline corrected, mean ± SD, read-out: Cmax): 10.3 ± 1.77 pM
Tmax ([4]; Regimen C (Intravenous): 100 μg as 1 mL bolus intravenous solution following an overnight fast, 14C, baseline corrected, median): 0.08^a hours
Tmax ([4]; intravenous dose, eight of the ten subjects (first sampling time)): 0.08 h
Tmax ([4]; intravenous dose, two subjects): 0.17 h
Cmax ([4]; oral 100 μg 14C-labelled M4N after a high fat breakfast, mean±SD, read-out: Cmax for total 14C): 5.94 ± 1.33 pM
Cmax ([4]; oral 100 μg 14C-labelled M4N after an overnight fast, mean±SD, read-out: Cmax for total 14C): 9.29 ± 1.4 pM
apparent absorption ([4]; oral administration, fed and fasted state): very high
Tmax ([4]; oral, fasted subjects): ~1 h
Cmax ([4]; single intravenous dose 100 μg in 30% HP-β-CD, 25% PEG, mean±SD, read-out: Cmax for total 14C): 10.3 ± 1.77 pM
